Values joined by “and” are separate entries in the source; they are usually repeats but may differ in a detail not shown here. Equal entries are not always repeated.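 Values below derive from 48-hour exposures of cells grown in 96-well plates, with endpoints linearly interpolated between the two concentrations bracketing the appropriate inhibition level. Here, GI50 denotes the concentration required for 50% inhibition of growth. TGI is the concentration that stops growth completely.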
Columns and labels:
Assay in all cases: NCI tumour cell line growth inhibition, 48 h
A498 renal = system: A498 renal
M14 melanoma = system: M14 melanoma
OVCAR-5 ovarian = system: OVCAR-5 ovarian
MDA-MB-435 = system: MDA-MB-435
HCT-15 colon = system: HCT-15 colon
PC-3 prostate = system: PC-3 prostate
SF-295 CNS = system: SF-295 CNS
RPMI-8226 leukemia = system: RPMI-8226 leukemia
OVCAR-3 ovarian = system: OVCAR-3 ovarian
U251 CNS = system: U251 CNS

Row | SMILES | TGI (A498 renal) | TGI (M14 melanoma) [µM] | TGI (OVCAR-5 ovarian) | TGI (MDA-MB-435) [µM] | TGI (HCT-15 colon) | TGI (PC-3 prostate) [µM] | TGI (SF-295 CNS) | TGI (RPMI-8226 leukemia) | TGI (OVCAR-3 ovarian) | TGI (U251 CNS) | GI50 (A498 renal) [µM] | GI50 (OVCAR-5 ovarian) [µM] | GI50 (HCT-15 colon) [µM] | GI50 (SF-295 CNS) [µM] | GI50 (OVCAR-3 ovarian) [µM] | GI50 (U251 CNS) [µM]
1 | NC(CC(O)(c1ccccc1)c1ccccc1)c1ccccc1S (stereo not given) | 32.7 µM | 29 | 31.7 µM | 28 | 33.6 µM | 24.2 | 31.4 µM | 68.3 µM | 29.5 µM | 28.3 µM |  |  |  |  |  | 
2 | CN(C)c1ccc(/C=C/C(=O)O)cc1 | > 100 µM | > 100 | > 100 µM |  | > 100 µM |  | > 100 µM | > 100 µM | > 100 µM |  |  |  |  |  |  | 
3 | Cc1ccc(S(=O)(=O)N/N=C2/CCC(C(C)(C)C)CC2Br)cc1 (stereo not given) | > 100 µM | 35.4 | 43.6 µM | 51.8 | > 100 µM | 86.5 | > 100 µM | 82.3 µM | 48.9 µM | 21.1 µM |  |  |  |  |  | 
4 | Cn1ccnc1CCc1ccc(Cl)c(Cl)c1 | > 100 µM | > 100 | > 100 µM |  | > 100 µM |  | > 100 µM | > 100 µM | > 100 µM | > 100 µM |  |  |  |  |  | 
5 | COc1c(C)c(C/C=C(\C)CC/C=C(\C)CC/C=C(\C)CCC=C(C)C)c(OC)c2ccccc12 |  | > 100 | > 100 µM | > 100 | > 100 µM | > 100 | > 100 µM |  | > 100 µM | > 100 µM |  |  |  |  |  | 
6 | C[n+]1c2ccccc2c(/C=N\NS(=O)(=O)c2ccc(Cl)cc2)c2ccccc21 | > 100 µM | > 100 | > 100 µM |  | > 100 µM |  | > 100 µM | > 100 µM | > 100 µM | > 100 µM |  |  |  |  |  | 
7 | Nc1nc(=O)n(C2OC(CO)C(O)C2O)c2ncc(-c3ccc(-c4ccccc4)cc3)nc12 (stereo not given) | > 100 µM |  | > 100 µM | > 100 | > 100 µM | > 100 | > 100 µM | > 100 µM |  | 88.9 µM |  |  |  |  |  | 
8 | COc1ccc2[nH]c(C(=O)N3CC(CCl)c4c3cc(N)c3ccccc43)cc2c1 (stereo not given) | 0.0399 µM |  | 0.315 µM |  | 1.15 µM | 0.0447 | < 0.0172 µM | 0.138 µM | > 100 µM | 0.0409 µM |  |  |  |  |  | 
9 | COC12C=CC(C=C1C#N)CC2 (stereo not given) (tested in a mixture with another compound) | > 100 µM | > 100 | > 100 µM | > 100 | > 100 µM | > 100 | > 100 µM | > 100 µM | > 100 µM | > 100 µM |  |  |  |  |  | 
10 | Cc1cc(N(CCC#N)CCC#N)ccc1/C=C1\SC(=S)NC1=O | > 100 µM | > 100 | > 100 µM | > 100 | > 100 µM | > 100 | > 100 µM | > 100 µM | > 100 µM | > 100 µM |  |  |  |  |  | 
11 | CCOc1ccc(/C=C2\NC(=S)N(/C=C3\C(=O)Oc4ccccc4C3=O)C2=O)cc1 |  | 92.4 | > 100 µM | 78.3 | 49.9 µM | 42.3 | 49.8 µM |  | 44.6 µM | 78.4 µM |  |  |  |  |  | 
12 | COC(=O)NC(Cc1ccccc1)NC(C)=O (stereo not given) | > 100 µM | > 100 | > 100 µM | > 100 | > 100 µM | > 100 | > 100 µM | > 100 µM | > 100 µM | > 100 µM |  |  |  |  |  | 
13 | CCN(CC)CCOC(=O)Cc1cccc2c(=O)cc(-c3ccccc3)oc12 | 62.5 µM and > 145 µM | 62.5 | 62.5 µM and > 197 µM | 62.5 | 62.5 µM and > 216 µM | 62.5 | 62.5 µM and > 141 µM | 51 µM and > 224 µM | 62.5 µM and > 76.3 µM | 62.5 µM and > 121 µM | 40.2 | 137 | 82.5 | 19.2 | > 43.4 | 57.9
14 | Cc1cc2oc(C)c(S(=O)(=O)NC(=O)Nc3ccc(Cl)cc3)c(=O)c2c(=O)o1 | > 100 µM | > 100 | > 100 µM | > 100 | > 100 µM | > 100 | > 100 µM | > 100 µM | > 100 µM | > 100 µM |  |  |  |  |  | 
15 | O=[N+]([O-])c1ccc(N2N=C(c3ccc4ccccc4c3O)CC2c2ccc(Cl)cc2)c([N+](=O)[O-])c1 (stereo not given) | > 100 µM | > 100 | > 100 µM | 33 | > 100 µM | > 100 | > 100 µM | 63.2 µM | 79.9 µM | > 100 µM |  |  |  |  |  | 
16 | COc1c2ccsc2c(OC)c2ccsc12 | > 100 µM | > 100 | > 100 µM | > 100 | > 100 µM | > 100 | > 100 µM |  | > 100 µM | > 100 µM |  |  |  |  |  | 
17 | CCOC(=O)C(NC(=O)CC)(Nc1ccc(F)c(Cl)c1)C(F)(F)F (stereo not given) | > 100 µM | > 100 | > 100 µM | > 100 | > 100 µM | > 100 | > 100 µM | > 100 µM | > 100 µM | > 100 µM |  |  |  |  |  | 
18 | O=C(c1ccc(O)c([N+](=O)[O-])c1)c1ccc(O)c([N+](=O)[O-])c1 | > 100 µM | > 100 | > 100 µM | 70.1 | > 100 µM | > 100 | > 100 µM | > 100 µM | > 100 µM | > 100 µM |  |  |  |  |  | 
19 | Cc1ccc2c(C(=O)c3c(C)n(CCN4CCOCC4)c4ccccc34)cccc2c1 | > 100 µM | 62 | 96.6 µM | 5.42 | 35.4 µM | 43.2 | 37.1 µM | 18.6 µM | 12.4 µM | 41 µM |  |  |  |  |  | 
20 | CCOC(=O)CCC(NC(=O)Cc1ccc(Oc2nc3ccccc3nc2-c2ccccc2)cc1)C(=O)OCC (stereo not given) | > 100 µM | > 100 | > 100 µM | > 100 | > 100 µM | > 100 | > 100 µM | > 100 µM | > 100 µM | > 100 µM |  |  |  |  |  | 
21 | COC(=O)c1cccc(OC)c1C#Cc1c(OC)cccc1OC | > 100 µM | > 100 | > 100 µM | > 100 | > 100 µM | > 100 | > 100 µM | > 100 µM | > 100 µM | > 100 µM |  |  |  |  |  | 
